The source of these data is US20240287074A1, “SALTS AND CRYSTALS” (Kinoxis Therapeutics Pty Ltd, priority 2020, published 2024).

The target of data set [1] is T1, orthosteric oxytocin receptor binding sites (Homo sapiens, UniProt P30559).
T1 sequence (P30559 1-389): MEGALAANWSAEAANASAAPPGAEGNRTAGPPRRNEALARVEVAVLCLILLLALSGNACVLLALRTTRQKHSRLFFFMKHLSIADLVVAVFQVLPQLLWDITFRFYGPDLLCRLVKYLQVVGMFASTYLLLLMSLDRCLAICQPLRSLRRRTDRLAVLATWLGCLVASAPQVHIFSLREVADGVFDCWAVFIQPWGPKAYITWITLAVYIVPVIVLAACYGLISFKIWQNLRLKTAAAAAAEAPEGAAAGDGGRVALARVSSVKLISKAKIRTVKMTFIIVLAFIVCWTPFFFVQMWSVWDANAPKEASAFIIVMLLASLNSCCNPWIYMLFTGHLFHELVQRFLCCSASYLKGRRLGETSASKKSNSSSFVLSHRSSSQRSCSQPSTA
The note with it: cited from earlier work.

A short description of data set [2]: Oral pharmacokinetics in rats. Format: in vivo. The note with it: for Plasma AUC0-inf/Dose / Plasma Cmax/Dose: dose-normalised; for Plasma AUC0-inf/Dose / Plasma Cmax/Dose / BA % / % Dose in urine: male Sprague Dawley rats; for Plasma AUC0-inf/Dose / Plasma Cmax/Dose / % Dose in urine: dihydrochloride; for BA % / % Dose in urine / Cmax / half-life / AUC(0-inf) / Tmax: 5 mg/kg target dose (freebase equivalent), 5 mg/kg; for BA % / Cmax / half-life / AUC(0-inf) / Tmax: mean ± SD; for BA %: n = 3, dihydrochloride; for % Dose in urine: urine up to 24 h; for Cmax / half-life / AUC(0-inf) / Tmax: male, Sprague Dawley, rat, plasma, po; for Cmax: n = 3; for half-life: n = 3, read-out: Apparent t1/2 (converted); for AUC(0-inf): n = 3, read-out: Plasma AUC0-inf; for Tmax: n = 3, read-out: Tmax. The method, then:
N=3 rats were run in each of the four conditions: • (1) Di-HCL salt in saline • (2) Di-HCL salt in methocel • (3) Phosphate form 1 in saline • (4) Phosphate form 1 in methocel
On the day of dosing the solid compounds were dissolved in either Saline (0.9%) or 0.5% hydroxypropyl methylcellulose (Methocel E3 Premium LV) in Milli-Q water. The formulations were then thoroughly vortexed to produce colourless solutions.
Overnight-fasted rats with adlibitum access to water were administered their dose of the various forms of the compound of the invention via oral gavage (PO) at a dose volume of 3 ml/kg and a dose of 5 mg/kg freebase equivalent. Food access was re-instated 4 hours (h) post-dose. Samples of arterial blood were collected up to 24 h post-dose. After collection, samples were centrifuged, plasma was removed and stored frozen at −80° C. before being analysed by LC-MS. Urine samples were collected at pre, 0-4 h, 4-7 h and 7-24 h post-dose and were analysed by LC-MS following extraction.

Data set [3] is described as follows: Dynamic / gravimetric vapour sorption (DVS/GVS) hygroscopicity. The class given is physicochemical. The method, then:
Approximately, 10-20 mg of sample was placed into a mesh vapour sorption balance pan and loaded into a DVS Intrinsic dynamic vapour sorption balance by Surface Measurement Systems. The sample was subjected to a ramping profile from 40-90% relative humidity (RH) at 10% increments, maintaining the sample at each step until a stable weight had been achieved (dm/dt 0.004%, minimum step length 30 minutes, maximum step length 500 minutes) at 25° C. After completion of the sorption cycle, the sample was dried using the same procedure to 0% RH and then a second sorption cycle back to 40% RH. Two cycles were performed. The weight change during the sorption/desorption cycles were plotted, allowing for the hygroscopic nature of the sample to be determined. XRPD analysis was then carried out on any solid retained.
Approximately 10-20 mg of sample was placed into a mesh vapour sorption balance pan and loaded into an IGASorp Moisture Sorption Analyser balance by Hiden Analytical. The sample was subjected to a ramping profile from 40-90% relative humidity (RH) at 10% increments, maintaining the sample at each step until a stable weight had been achieved (98% step completion, minimum step length 30 minutes, maximum step length 60 minutes) at 25° C. After completion of the sorption cycle, the sample was dried using the same procedure to 0% RH, and finally taken back to the starting point of 40% RH. Two cycles were performed. The weight change during the sorption/desorption cycles were plotted, allowing for the hygroscopic nature of the sample to be determined.

Data set [4] relates to C57BL/6 mouse model of opioid withdrawal. Kind of data set: Naloxone precipitated oxycodone withdrawal-induced jumping. The class given is in vivo. The note with it: 7.3 mg/kg FBE i.p., C57BL/6 mice, 30 min session, vs OXY_VEH. The method, then: Two cohorts of adult male C57BL/6 mice were run assessing the effects of 7.3 mg/kg freebase equivalent (FBE) IP of the compound of the invention in the dihydrochloride salt form (CMPD1-2HCL) and the phosphate form 1 (CMPD1-PO4) on naloxone precipitated withdrawal-induced jumping.
The first cohort of mice (N=30) were split into the following conditions: • (1) Vehicle, 0 mg/kg (n=10); • (2) oxycodone, 0 mg/kg compound of the invention FBE in 2HCL salt form (n=10); • (3) oxycodone, 7.3 mg/kg compound of the invention FBE in 2HCL salt form (n=10).
The second cohort of mice (N=24) were split into the following conditions: • (1) Vehicle, 0 mg/kg (n=8); • (2) oxycodone, 0 mg/kg compound of the invention FBE in PO4 salt form (n=8); • (3) oxycodone, 7.3 mg/kg compound of the invention FBE in PO4 salt form (n=8).
Mice in the oxycodone conditions received i.p. injections of oxycodone for 5 days according to the schedule and doses set out in Table 8. The morning and afternoon doses were separated by 7 h. Mice in the vehicle condition received injections of vehicle saline instead of oxycodone. […]
Testing involved placing mice individually into a 20 (I)×20 (w)×30 (h) cm arena for 30 min. […] Number of jumps were scored from the videos by an experienced experimenter blind to conditions.
Data were analysed by SPSS using oneway ANOVA and planned contrasts.

Data set [5] deals with orthosteric vasopressin receptor binding sites. The note with it: cited from earlier work.

Structures can show the parent of a compound that is named as a salt. Where two headings read alike, the source gives them in different places. Marks after values point to notes of the source that are not given here.

With `Cn1ncc2c1Nc1ccccc1NC2` [Di-hydrochloride salt, 1-Methyl-1,4,5,10-tetrahydropyrazolo[3,4-b][1,5]benzodiazepine dihydrochloride], in data set [1], the “binding affinity for the orthosteric oxytocin receptor binding sites” value is recorded as “without demonstrating significant binding affinity”. Besides, in data set [2] (Methocel), the “Plasma AUC0-inf/Dose” value was 0.91 ± 0.12 (μg*h/mL)/(mg/kg), the “Plasma Cmax/Dose” value is listed as 0.40 ± 0.02 (μg/mL)/(mg/kg), the BA % is on record as 98.9 ± 13^b % and the “% Dose in urine” value was found to be 0.224 ± 0.14%. Moreover, in data set [2] (Methocel), the Cmax was 1800 ± 110 ng/mL, the half-life is 40.8 ± 12 min, the AUC(0-inf) is 4100 ± 520 ng·h/mL and the Tmax is 19.8 ± 6 min. Also, in data set [2] (Saline), the “Plasma AUC0-inf/Dose” value is on record as 1.14 ± 0.12 (μg*h/mL)/(mg/kg), the “Plasma Cmax/Dose” value is listed as 0.61 ± 0.29 (μg/mL)/(mg/kg), the BA % is listed as 124 ± 13% and the “% Dose in urine” value is 0.184 ± 0.059%. Besides, in data set [2] (Saline), the Cmax was 2930 ± 1360 ng/mL, the half-life was 41.4 ± 6 min, the AUC(0-inf) was determined as 5460 ± 540 ng·h/mL and the Tmax was 45 ± 24 min. Moreover, in data set [3], the “relative humidity above which form change is indicated by DVS” value is listed as “above 60 % RH” and the “relative humidity below which the weight change is reversible (DVS)” value is reported as “below 30 % RH”. The hygroscopicity result in data set [3] (DVS, 25° C., dihydrochloride) is recorded as “high hygroscopicity”. Moreover, in data set [4], the oxycodone withdrawal-induced jumping entry was “significantly inhibited”. Further, in data set [5], the “binding affinity for the orthosteric vasopressin receptor binding sites” value is “without demonstrating significant binding affinity”.

The Cmax is the highest concentration seen after dosing. One may read the Tmax as the time at which the peak concentration occurs.
